Results taken from PubChem BioAssay AID256 (DTP/NCI, 2004).
Where “and” joins values, the source holds several entries; their conditions need not be identical. Identical values can stand only once. Inconclusive results and toxic doses are left out.

Tested on: CD2F1 mice, L1210 leukemia ip, survival T/C
Assay: NCI In Vivo Anticancer Drug Screen. Data for tumor model L1210 Leukemia (intraperitoneal) in CD2F1 (CDF1) mice
Settings: higher = longer survival
Outline: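 Implant tumor; dose compound or vehicle; measure endpoint in both groups; report treated divided by control.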

[1] = endpoint: mean survival time, dose: 12.5 mg/kg/injection, schedule: Q01DX009 (ip), vehicle: saline with Tween-80
[2] = endpoint: mean survival time, dose: 25.0 mg/kg/injection, schedule: Q01DX009 (ip), vehicle: saline with Tween-80
[3] = endpoint: mean survival time, dose: 100.0 mg/kg/injection, schedule: Q04DX003 (ip), vehicle: saline with Tween-80
[4] = endpoint: mean survival time, dose: 200.0 mg/kg/injection, schedule: Q04DX003 (ip), vehicle: saline with Tween-80
[5] = endpoint: mean survival time, dose: 400.0 mg/kg/injection, schedule: Q04DX003 (ip), vehicle: saline with Tween-80
[6] = endpoint: mean survival time, dose: 100.0 mg/kg/injection, schedule: Q01DX009 (ip), vehicle: saline with Tween-80
[7] = endpoint: mean survival time, dose: 200.0 mg/kg/injection, schedule: Q01DX009 (ip), vehicle: saline with Tween-80
[8] = endpoint: mean survival time, dose: 400.0 mg/kg/injection, schedule: Q01DX009 (ip), vehicle: saline with Tween-80

CCC1(O)C(=O)OCc2c1cc1n(c2=O)Cc2cc3cc(O)c(O)cc3nc2-1 (stereo not given)
T/C (endpoint: median survival time, dose: 10.0 mg/kg/injection, schedule: Q04DX002 (ip), vehicle: saline with Tween-80): 153 % of control | T/C (endpoint: median survival time, dose: 40.0 mg/kg/injection, schedule: Q04DX002 (ip), vehicle: saline with Tween-80): 157 % of control | T/C (endpoint: median survival time, dose: 80.0 mg/kg/injection, schedule: Q04DX002 (ip), vehicle: saline with Tween-80): 173 % of control

CCN(CC)C(=S)SCCSC(=S)N(CC)CC
T/C (endpoint: mean survival time, dose: 100.0 mg/kg/injection, schedule: Q04DX002 (ip), vehicle: saline with Tween-80): 92 % of control | T/C (endpoint: mean survival time, dose: 200.0 mg/kg/injection, schedule: Q04DX002 (ip), vehicle: saline with Tween-80): 106 % of control | T/C (endpoint: mean survival time, dose: 400.0 mg/kg/injection, schedule: Q04DX002 (ip), vehicle: saline with Tween-80): 89 % of control

COC1=C(OC)C(=O)C(SCc2ccc(OC)cc2)=CC1=O
T/C (endpoint: mean survival time, dose: 6.25 mg/kg/injection, schedule: Q01DX009 (ip), vehicle: saline with Tween-80): 102 % of control | T/C [1]: 91 % of control | T/C [2]: 87 % of control

Cc1nc(C(Cl)(Cl)Cl)[nH]c(=O)c1SCCO
T/C (endpoint: median survival time, dose: 25.0 mg/kg/injection, schedule: Q01DX009 (ip), vehicle: distilled water + alcohol): 97 % of control and 100 % of control and 102 % of control | T/C (endpoint: median survival time, dose: 25.0 mg/kg/injection, schedule: Q01DX009 (sc), vehicle: distilled water + Tween-80 + alcohol): 101 % of control | T/C (endpoint: median survival time, dose: 50.0 mg/kg/injection, schedule: Q01DX009 (sc), vehicle: distilled water + Tween-80 + alcohol): 101 % of control | T/C (endpoint: median survival time, dose: 100.0 mg/kg/injection, schedule: Q01DX009 (sc), vehicle: distilled water + Tween-80 + alcohol): 101 % of control | T/C (endpoint: median survival time, dose: 200.0 mg/kg/injection, schedule: Q01DX009 (sc), vehicle: distilled water + Tween-80 + alcohol): 103 % of control

CC(C)CCCC(C)C1CCC2C3CC=C4CC(OCCC(C)C)CCC4(C)C3CCC12C (stereo not given)
T/C [3]: 97 % of control | T/C [4]: 95 % of control | T/C [5]: 88 % of control

CCOc1nc(OCC)nc(-c2cccn2-c2ccccc2)n1
T/C [6]: 95 % of control | T/C [3]: 106 % of control | T/C [7]: 87 % of control | T/C [4]: 100 % of control | T/C [8]: 93 % of control | T/C [5]: 98 % of control

ClC(Cl)=C(c1ccc(Cl)cc1)c1ccc(Cl)cc1
T/C [6]: 103 % of control | T/C [7]: 97 % of control | T/C [8]: 101 % of control

O=C(O)c1[nH]nc(-c2ccc([N+](=O)[O-])cc2)c1[N+](=O)[O-]
T/C (endpoint: mean survival time, dose: 4.7 mg/kg/injection, schedule: Q01DX005 (ip), vehicle: water): 86 % of control | T/C (endpoint: mean survival time, dose: 9.4 mg/kg/injection, schedule: Q01DX005 (ip), vehicle: water): 90 % of control | T/C (endpoint: mean survival time, dose: 18.8 mg/kg/injection, schedule: Q01DX005 (ip), vehicle: water): 90 % of control | T/C (endpoint: mean survival time, dose: 37.5 mg/kg/injection, schedule: Q01DX005 (ip), vehicle: water): 104 % of control | T/C (endpoint: mean survival time, dose: 50.0 mg/kg/injection, schedule: Q01DX005 (ip), vehicle: water): 97 % of control | T/C (endpoint: mean survival time, dose: 75.0 mg/kg/injection, schedule: Q01DX005 (ip), vehicle: water): 93 % of control | T/C (endpoint: mean survival time, dose: 100.0 mg/kg/injection, schedule: Q01DX005 (ip), vehicle: water): 93 % of control | T/C (endpoint: mean survival time, dose: 200.0 mg/kg/injection, schedule: Q01DX005 (ip), vehicle: water): 89 % of control | T/C (endpoint: mean survival time, dose: 400.0 mg/kg/injection, schedule: Q01DX005 (ip), vehicle: water): 101 % of control

Cc1ccc(S(=O)(=O)CCCCl)cc1
T/C (endpoint: mean survival time, dose: 50.0 mg/kg/injection, schedule: Q01DX009 (ip), vehicle: Klucel (hydroxypropylcellulose) (HPC)): 111 % of control | T/C (endpoint: mean survival time, dose: 100.0 mg/kg/injection, schedule: Q01DX009 (ip), vehicle: Klucel (hydroxypropylcellulose) (HPC)): 95 % of control | T/C (endpoint: mean survival time, dose: 200.0 mg/kg/injection, schedule: Q01DX009 (ip), vehicle: Klucel (hydroxypropylcellulose) (HPC)): 100 % of control

Nc1nc(=S)c2[nH]c(N=Nc3ccc(S(N)(=O)=O)cc3)nc2[nH]1
T/C (endpoint: mean survival time, dose: 50.0 mg/kg/injection, schedule: Q04DX003 (ip), vehicle: Klucel (hydroxypropylcellulose) (HPC)): 123 % of control

Nc1nc2cc[nH]c2c(=O)[nH]1
T/C (endpoint: median survival time, dose: 50.0 mg/kg/injection, schedule: Q01DX005 (ip), vehicle: saline with Tween-80): 94 % of control | T/C (endpoint: median survival time, dose: 100.0 mg/kg/injection, schedule: Q01DX005 (ip), vehicle: saline with Tween-80): 97 % of control | T/C (endpoint: median survival time, dose: 200.0 mg/kg/injection, schedule: Q01DX005 (ip), vehicle: saline with Tween-80): 92 % of control

COc1cccc2c1C(CO)N1C(C#N)C3CC(C(=O)O)C(C1C2)N3C (stereo not given)
T/C (endpoint: median survival time, dose: 3.12 mg/kg/injection, schedule: Q01DX005 (ip), vehicle: saline): 112 % of control | T/C (endpoint: median survival time, dose: 6.25 mg/kg/injection, schedule: Q01DX005 (ip), vehicle: saline): 110 % of control | T/C (endpoint: median survival time, dose: 9.0 mg/kg/injection, schedule: Q01DX005 (ip), vehicle: suspension in saline): 120 % of control and 111 % of control | T/C (endpoint: median survival time, dose: 12.5 mg/kg/injection, schedule: Q01DX005 (ip), vehicle: saline): 112 % of control | T/C (endpoint: median survival time, dose: 15.0 mg/kg/injection, schedule: Q01DX005 (ip), vehicle: suspension in saline): 124 % of control | T/C (endpoint: median survival time, dose: 41.67 mg/kg/injection, schedule: Q01DX005 (ip), vehicle: suspension in saline): 87 % of control | T/C (endpoint: median survival time, dose: 50.0 mg/kg/injection, schedule: Q01DX005 (ip), vehicle: saline): 89 % of control

Cc1ccc(S(=O)(=O)NCC(Br)CBr)cc1 (stereo not given)
T/C [6]: 93 % of control | T/C [3]: 100 % of control | T/C [7]: 93 % of control | T/C [4]: 98 % of control | T/C [8]: 96 % of control | T/C [5]: 100 % of control

CC(=O)NCC(O)C(O)C(O)C(O)CO (stereo not given)
T/C (endpoint: mean survival time, dose: 100.0 mg/kg/injection, schedule: Q01DX009 (ip), vehicle: saline): 96 % of control | T/C (endpoint: mean survival time, dose: 200.0 mg/kg/injection, schedule: Q01DX009 (ip), vehicle: saline): 98 % of control | T/C (endpoint: mean survival time, dose: 400.0 mg/kg/injection, schedule: Q01DX009 (ip), vehicle: saline): 110 % of control

O=C(Nc1ccc(Nc2ccc(NC(=O)c3ccccc3)c3c2C(=O)c2ccccc2C3=O)c2c1C(=O)c1ccccc1C2=O)c1ccccc1
T/C [6]: 95 % of control | T/C [3]: 108 % of control | T/C [7]: 95 % of control | T/C [4]: 100 % of control | T/C [8]: 100 % of control | T/C [5]: 102 % of control

CCCCNc1ccc2nnc(C)n2n1
T/C (endpoint: median survival time, dose: 50.0 mg/kg/injection, schedule: Q01DX005 (ip), vehicle: DMSO): 100 % of control and 101 % of control | T/C (endpoint: median survival time, dose: 100.0 mg/kg/injection, schedule: Q01DX005 (ip), vehicle: DMSO): 97 % of control and 100 % of control | T/C (endpoint: median survival time, dose: 200.0 mg/kg/injection, schedule: Q01DX005 (ip), vehicle: DMSO): 104 % of control

O=S1(=O)CC(O)C(Br)C1 (stereo not given)
T/C [3]: 103 % of control | T/C [4]: 101 % of control | T/C [5]: 92 % of control

C/C(=C/C(=O)O)C(=O)O.[NH-]C1CCCCC1[NH-].[Pt+2]
T/C (endpoint: median survival time, dose: 3.12 mg/kg/injection, schedule: Q04DX003 (ip), vehicle: saline): 100 % of control and 107 % of control | T/C (endpoint: median survival time, dose: 6.25 mg/kg/injection, schedule: Q04DX003 (ip), vehicle: saline): 96 % of control and 109 % of control | T/C (endpoint: median survival time, dose: 12.5 mg/kg/injection, schedule: Q04DX003 (ip), vehicle: saline): 108 % of control | T/C (endpoint: median survival time, dose: 25.0 mg/kg/injection, schedule: Q04DX003 (ip), vehicle: saline): 116 % of control and 111 % of control | T/C (endpoint: median survival time, dose: 50.0 mg/kg/injection, schedule: Q04DX003 (ip), vehicle: saline): 116 % of control and 120 % of control | T/C (endpoint: median survival time, dose: 200.0 mg/kg/injection, schedule: Q04DX003 (ip), vehicle: saline): 153 % of control and 185 % of control

CC#CC(=O)SCCNC(=O)CCNC(C)=O
T/C [1]: 112 % of control | T/C [2]: 102 % of control | T/C (endpoint: mean survival time, dose: 25.0 mg/kg/injection, schedule: Q04DX003 (ip), vehicle: saline): 105 % of control | T/C (endpoint: mean survival time, dose: 50.0 mg/kg/injection, schedule: Q01DX009 (ip), vehicle: saline with Tween-80): 108 % of control | T/C (endpoint: mean survival time, dose: 50.0 mg/kg/injection, schedule: Q04DX003 (ip), vehicle: saline): 112 % of control | T/C [6]: 119 % of control | T/C (endpoint: mean survival time, dose: 100.0 mg/kg/injection, schedule: Q04DX003 (ip), vehicle: saline): 103 % of control

CCCCCOC(=S)S
T/C (endpoint: mean survival time, dose: 9.37 mg/kg/injection, schedule: Q04DX003 (ip), vehicle: Klucel (hydroxypropylcellulose) (HPC)): 86 % of control | T/C (endpoint: mean survival time, dose: 37.5 mg/kg/injection, schedule: Q04DX003 (ip), vehicle: Klucel (hydroxypropylcellulose) (HPC)): 86 % of control

CC(=O)OC1COC(n2cnc(C#N)c2C#N)C(OC(C)=O)C1OC(C)=O (stereo not given)
T/C (endpoint: mean survival time, dose: 12.5 mg/kg/injection, schedule: Q01DX005 (ip), vehicle: distilled water + Tween-80): 101 % of control and 98 % of control | T/C (endpoint: mean survival time, dose: 25.0 mg/kg/injection, schedule: Q01DX005 (ip), vehicle: distilled water + Tween-80): 95 % of control and 103 % of control | T/C (endpoint: mean survival time, dose: 50.0 mg/kg/injection, schedule: Q01DX005 (ip), vehicle: distilled water + Tween-80): 93 % of control and 101 % of control | T/C (endpoint: mean survival time, dose: 100.0 mg/kg/injection, schedule: Q01DX005 (ip), vehicle: distilled water + Tween-80): 97 % of control | T/C (endpoint: mean survival time, dose: 200.0 mg/kg/injection, schedule: Q01DX005 (ip), vehicle: distilled water + Tween-80): 93 % of control and 104 % of control
